Assay results as given in US10420772B2, “Animal and human anti-trypanosomonal and anti-leishmania agents” (Celgene Corporation, priority 2016, dated 2019).

Assays:
[1] = tested on: IL3000 T. congolense (drug sensitive) strain; experiment: In vitro Alamar Blue 72 hrs drug sensitivity assay for T. congolense; format: cell-based; settings: Trypanosoma congolense, IL3000 T. congolense bloodstream form, read-out: T. congo Act.
Description: In Vitro Alamar Blue 72 Hrs Drug Sensitivity Assay for T. Congolense. Compounds were tested in vitro for chemotherapeutic efficacy against the IL3000 T. congolense (drug sensitive) strain using an Alamar Blue assay. Test compounds were prepared as 10 mg/mL DMSO stocks for each assay run. Compounds were assayed in at least three separate, independent test runs and an 11-point dilution curve was used to determine the IC50 values. Bloodstream form trypanosomes were supported in HMI media containing 20% bovine serum and were incubated with test compounds for 69 hrs at 34° C. in a humidified atmosphere containing 5% CO2. Thereafter, 10 μL of Resazurin dye (12.5 mg in 100 mL of phosphate buffered saline, Sigma-Aldrich, Buchs, Switzerland) were added for an additional 3 hrs. Plates were then read using a fluorescent plate reader (Spectramax, Gemini XS, Bucher Biotec, Basel, Switzerland) using an excitation wavelength of 536 nm and an emission wavelength of 588 nm. Data points were averaged to generate sigmoidal dose-response curves and IC50 values were determined using Softmax Pro 5.2 software.

[2] = tested on: STIB 719/ILRAD 560 T. vivax (drug sensitive) strain; experiment: Ex vivo Alamar Blue 48 hrs drug sensitivity assay for T. vivax; format: cell-based; settings: Trypanosoma vivax, STIB719; STIB 719/ILRAD 560 T. vivax bloodstream form, ex vivo, Alamar Blue, 48 hrs; read-out: T. vivax Act.
Description: Ex vivo Alamar Blue48 hrs drug sensitivity assay for T. vivax. Compounds were tested ex vivo for chemotherapeutic efficacy against the STIB 719/ILRAD 560 T. vivax (drug sensitive) strain, using an Alamar Blue assay. Test compounds were prepared as 10 mg/mL DMSO stocks for each assay run. Compounds were assayed in at least three separate, independent test runs and an 11-point dilution curve was used to determine the IC50 values. Bloodstream form trypanosomes were propagated and harvested from a highly parasitaemic mouse (via cardiac puncture) and were incubated with test compounds for 45 hrs at 37° C. in a humidified atmosphere containing 5% CO2, supported in HMI media containing 20% bovine serum. Thereafter, 10 μL of Resazurin dye (12.5 mg in 100 mL of phosphate buffered saline, Sigma-Aldrich, Buchs, Switzerland) were added for an additional 3 hrs. Plates were then read using a fluorescent plate reader (Spectramax, Gemini XS, Bucher Biotec, Basel, Switzerland) using an excitation wavelength of 536 nm and an emission wavelength of 588 nm. Data points were averaged to generate sigmoidal dose-response curves and IC50 values were determined using Softmax Pro 5.2 software.

| SMILES | IC50 [1] | IC50 [2] |
| --- | --- | --- |
| CC1(Nc2ncc3nc(Nc4cccc(Cl)c4)n([C@H]4CC[C@@H](CN)CC4)c3n2)CCC1 [A-2, 9-((1s,4s)-4-(aminomethyl)cyclohexyl)-N8-(3-chlorophenyl)-N2-(1-methylcyclobutyl)-9H-purine-2,8-diamine] | < 150 nM | < 150 nM |
| CCC(C)(C)Nc1ncc2nc(Nc3cccc(Cl)c3)n([C@H]3CC[C@@H](CN)CC3)c2n1 [A-3, 9-((1s,4s)-4-(aminomethyl)cyclohexyl)-N8-(3-chlorophenyl)-N2-tert-pentyl-9H-purine-2,8-diamine] | < 150 nM | < 150 nM |
| CC(C)(C)Nc1ncc2nc(Nc3ccccn3)n(C3CCC(CN)CC3)c2n1 (stereo not shown) [A-6, 9-((1s,4s)-4-(aminomethyl)cyclohexyl)-N2-tert-butyl-N8-(pyridin-2-yl)-9H-purine-2,8-diamine] | 350 to 500 nM | < 150 nM |
| CC1(Nc2ncc3nc(Nc4ccccn4)n(C4CCC(CN)CC4)c3n2)CCOCC1 (stereo not shown) [A-8, 9-((1s,4s)-4-(aminomethyl)cyclohexyl)-N2-(4-methyltetrahydro-2H-pyran-4-yl)-N8-(pyridin-2-yl)-9H-purine-2,8-diamine] | 350 to 500 nM | 150 to 350 nM |
| CC1(Nc2ncc3nc(Nc4cccc(F)c4F)n(C4CCC(CN)CC4)c3n2)CCOCC1 (stereo not shown) [A-9, 9-((1s,4s)-4-(aminomethyl)cyclohexyl)-N8-(2,3-difluorophenyl)-N2-(4-methyltetrahydro-2H-pyran-4-yl)-9H-purine-2,8-diamine] | < 150 nM | < 150 nM |
| CC1(Nc2ncc3nc(Nc4cccc(Cl)c4)n(C4CCC(O)CC4)c3n2)CCCC1 (stereo not shown) [A-10, (1s,4s)-4-(8-(3-chlorophenylamino)-2-(1-methylcyclopentylamino)-9H-purin-9-yl)cyclohexanol] | 350 to 500 nM | 350 to 500 nM |
| CC1(Nc2ncc3nc(Nc4cccc(C(F)(F)F)c4)n(C4CCC(CN)CC4)c3n2)CCCC1 (stereo not shown) [A-12, 9-((1s,4s)-4-(aminomethyl)cyclohexyl)-N2-(1-methylcyclopentyl)-N8-(3-(trifluoromethyl)phenyl)-9H-purine-2,8-diamine] | 350 to 500 nM | 150 to 350 nM |
| COC(=O)NC[C@H]1CC[C@@H](n2c(Nc3cccc(Cl)c3)nc3cnc(NC4(C)CCOCC4)nc32)CC1 [A-14, methyl ((1s,4s)-4-(8-(3-chlorophenylamino)-2-(4-methyltetrahydro-2H-pyran-4-ylamino)-9H-purin-9-yl)cyclohexyl)methylcarbamate] | 150 to 350 nM | 350 to 500 nM |
| CC(C)(C)Nc1ncc2nc(Nc3cccc(C(F)(F)F)c3)n([C@H]3CC[C@@H](CN)CC3)c2n1 [A-15, 9-((1s,4s)-4-(aminomethyl)cyclohexyl)-N2-tert-butyl-N8-(3-(trifluoromethyl)phenyl)-9H-purine-2,8-diamine] | < 150 nM | < 150 nM |
| CC1(Nc2ncc3nc(Nc4ccc(C(F)(F)F)cc4)n(C4CCC(CN)CC4)c3n2)CCCC1 (stereo not shown) [A-16, 9-((1s,4s)-4-(aminomethyl)cyclohexyl)-N2-(1-methylcyclopentyl)-N8-(4-(trifluoromethyl)phenyl)-9H-purine-2,8-diamine] | 350 to 500 nM | 350 to 500 nM |
| CC(C)(C)Nc1ncc2nc(Nc3cccc(C(F)(F)F)c3)n([C@H]3CC[C@H](CN)CC3)c2n1 [A-17, 9-((1r,4r)-4-(aminomethyl)cyclohexyl)-N2-tert-butyl-N8-(3-(trifluoromethyl)phenyl)-9H-purine-2,8-diamine] | < 150 nM | < 150 nM |
| Cc1ccc(Nc2nc3cnc(NC(C)(C)C)nc3n2C2CCC(CN)CC2)cc1 (stereo not shown) [A-18, 9-((1r,4r)-4-(aminomethyl)cyclohexyl)-N2-tert-butyl-N8-p-tolyl-9H-purine-2,8-diamine] | 350 to 500 nM | 150 to 350 nM |
| CC1(Nc2ncc3nc(Nc4cccc(Cl)c4)n([C@H]4CC[C@@H](CO)CC4)c3n2)CCOCC1 [A-19, ((1s,4s)-4-(8-(3-chlorophenylamino)-2-(4-methyltetrahydro-2H-pyran-4-ylamino)-9H-purin-9-yl)cyclohexyl)methanol] | 350 to 500 nM | 150 to 350 nM |
| CC1(Nc2ncc3nc(Nc4cccc(Cl)c4)n([C@@H]4CCC[C@H](CN)C4)c3n2)CCOCC1 [A-20, 9-((1R,3S)-3-(aminomethyl)cyclohexyl)-N8-(3-chlorophenyl)-N2-(4-methyltetrahydro-2H-pyran-4-yl)-9H-purine-2,8-diamine] | 350 to 500 nM | < 150 nM |
| CNC[C@H]1CC[C@@H](n2c(Nc3cccc(Cl)c3)nc3cnc(NC4(C)CCOCC4)nc32)CC1 [A-21, N8-(3-chlorophenyl)-9-((1s,4s)-4-((methylamino)methyl)cyclohexyl)-N2-(4-methyltetrahydro-2H-pyran-4-yl)-9H-purine-2,8-diamine] | < 150 nM | < 150 nM |
| CC(C)(C)Nc1ncc2nc(Nc3ccc(C(F)(F)F)cc3)n([C@H]3CC[C@@H](CN)CC3)c2n1 [A-22, 9-((1s,4s)-4-(aminomethyl)cyclohexyl)-N2-tert-butyl-N8-(4-(trifluoromethyl)phenyl)-9H-purine-2,8-diamine] | 150 to 350 nM | 350 to 500 nM |
| CCC(C)(C)Nc1ncc2nc(Nc3ccc(C(F)(F)F)cc3)n([C@H]3CC[C@@H](CN)CC3)c2n1 [A-23, 9-((1s,4s)-4-(aminomethyl)cyclohexyl)-N2-tert-pentyl-N8-(4-(trifluoromethyl)phenyl)-9H-purine-2,8-diamine] | 350 to 500 nM | 350 to 500 nM |
| CC1(Nc2ncc3nc(Nc4cccc(C(F)(F)F)c4)n(C4CCC(C#N)CC4)c3n2)CCOCC1 (stereo not shown) [A-24, (1s,4s)-4-(2-(4-methyltetrahydro-2H-pyran-4-ylamino)-8-(3-(trifluoromethyl)phenylamino)-9H-purin-9-yl)cyclohexanecarbonitrile] | 150 to 350 nM | 150 to 350 nM |
| CC(=O)NC1CCC(n2c(Nc3cccc(Cl)c3)nc3cnc(NC4(C)CCOCC4)nc32)CC1 (stereo not shown) [A-25, N-((1s,4s)-4-(8-(3-chlorophenylamino)-2-(4-methyltetrahydro-2H-pyran-4-ylamino)-9H-purin-9-yl)cyclohexyl)acetamide] | 350 to 500 nM | < 150 nM |
| CC1(Nc2ncc3nc(Nc4cccc(Cl)c4)n([C@H]4CC[C@H](CO)CC4)c3n2)CCOCC1 [A-26, ((1r,4r)-4-(8-(3-chlorophenylamino)-2-(4-methyltetrahydro-2H-pyran-4-ylamino)-9H-purin-9-yl)cyclohexyl)methanol] | 150 to 350 nM | < 150 nM |
| CC1(Nc2ncc3nc(Nc4cccc(Cl)c4)n([C@H]4CC[C@@H](N)CC4)c3n2)CCOCC1 [A-27, 9-((1s,4s)-4-aminocyclohexyl)-N8-(3-chlorophenyl)-N2-(4-methyltetrahydro-2H-pyran-4-yl)-9H-purine-2,8-diamine] | < 150 nM | < 150 nM |
| CC(C)(C)Nc1ncc2nc(Nc3cccc(C(F)(F)F)c3)n([C@H]3CC[C@@H](N)CC3)c2n1 [A-29, 9-((1s,4s)-4-aminocyclohexyl)-N2-tert-butyl-N8-(3-(trifluoromethyl)phenyl)-9H-purine-2,8-diamine] | < 150 nM | < 150 nM |
| CC(C)(C)Nc1ncc2nc(Nc3cccc(C(F)(F)F)c3)n([C@H]3CC[C@H](N)CC3)c2n1 [A-30, 9-((1r,4r)-4-aminocyclohexyl)-N2-tert-butyl-N8-(3-(trifluoromethyl)phenyl)-9H-purine-2,8-diamine] | < 150 nM | < 150 nM |
| CC1(Nc2ncc3nc(Nc4ccc(C(F)(F)F)cc4)n([C@H]4CC[C@@H](CN)CC4)c3n2)CCOCC1 [A-31, 9-((1s,4s)-4-(aminomethyl)cyclohexyl)-N2-(4-methyltetrahydro-2H-pyran-4-yl)-N8-(4-(trifluoromethyl)phenyl)-9H-purine-2,8-diamine] | 150 to 350 nM | < 150 nM |
| CC1(Nc2ncc3nc(Nc4cccc(Cl)c4)n(-c4ccc(CN)cc4)c3n2)CCOCC1 [A-32, 9-(4-(aminomethyl)phenyl)-N8-(3-chlorophenyl)-N2-(4-methyltetrahydro-2H-pyran-4-yl)-9H-purine-2,8-diamine] | 150 to 350 nM | < 150 nM |
| CC1(Nc2ncc3nc(Nc4cccc(C(F)(F)F)c4)n(C4CCC(CN)CC4)c3n2)CCC1 (stereo not shown) [A-57, 9-((1s,4s)-4-(aminomethyl)cyclohexyl)-N2-(1-methylcyclobutyl)-N8-(3-(trifluoromethyl)phenyl)-9H-purine-2,8-diamine] | < 150 nM |  |
| NCC1CCC(n2c(Nc3cccc(Cl)c3F)nc3cnc(NC4CCOCC4)nc32)CC1 (stereo not shown) [B-13, 9-((1s,4s)-4-(aminomethyl)cyclohexyl)-N8-(3-chloro-2-fluorophenyl)-N2-(tetrahydro-2H-pyran-4-yl)-9H-purine-2,8-diamine] | < 150 nM |  |
